Results on eleven compounds are retold here after paper PMC10304174, “Development of Zeise’s Salt Derivatives Bearing Substituted Acetylsalicylic Acid Substructures as Cytotoxic COX Inhibitors” (Pharmaceutics, 2023).

As a reminder, the IC50 is the point on the concentration scale where inhibition reaches its midpoint. A high value points to lower potency.

A short description of data set [1]: Complex stability by capillary electrophoresis (decrease of initial complex over time). The conditions noted are these: MeOH/water (50/50, v/v), 1 mM, 37 °C, CE. Format: physicochemical. As for the experimental part:
The analysis was performed as previously described. A 50 mM sodium tetraborate solution (pH = 9.3, adjusted with 1 M NaOH), served as background electrolyte (BGE). Washing of novel capillaries consecutively with 1 M NaOH (45 min), water (45 min), and BGE (45 min) was performed. The hydrodynamic injection mode was utilized to introduce the samples into the capillary (50 mbar for 2 s). The capillary was kept at 25 °C, and the autosampler was thermostatted at 37 °C with an external water bath. For separation, the voltage was set to 20 kV, and the detection was carried out at the wavelength of 230 nm. Before each measurement, flushing of the capillary with 0.1 M NaOH (3 min), water (3 min), and BGE (5 min) took place. The samples were dissolved in methanol (MeOH) and further diluted in equal parts by volume with water to give a final concentration of 1 mM. Triple determinations were performed, and the half-lives (τ½) are presented as mean ± SD of ≥3 independent experiments. Samples, washing solutions, and buffers were filtered through a membrane with 0.22 µm porosity and degassed by ultrasonication before use. To simplify the reaction dynamics from a possible second-order to pseudo-first-order, one of two reactants must be present in great excess (>10 to 25-fold). If this condition is fulfilled, logarithmic plotting of the gradual decrease in the other reactant’s concentration (or increase in the concentration of a product, respectively) against the time yields a straight line, and half-lives can be calculated.
An already-established method was used to study the stability of the X-ASA-Prop-PtCl3 and X-ASA-But-PtCl3 complexes. The degradation products were separated by capillary electrophoresis using a fused-silica capillary ([…] × 75 µm, effective length: 56 cm, capillary temperature: 25 °C) and a 50 mM tetraborate buffer (pH = 9.3) as BGE. For separation, the voltage was set to 20 kV and the compounds were detected at 230 nm. Benzoic acid was used as an internal standard. Exemplary electropherograms of each complex can be found in the Supplementary Material (Figures S1–S24).
The complexes (1 mM) were dissolved in MeOH or MeOH/water (50/50, v/v) and stored at 37 °C. The decrease in the initial amount of complex was monitored time-dependently by CE, and the half-life (τ½) was calculated (Table 2).

The target of a further data set is T1, COX-1 (Ovis aries, UniProt P05979).
T1 construct: purchased Cayman Chemicals
T1 sequence (P05979 25-600): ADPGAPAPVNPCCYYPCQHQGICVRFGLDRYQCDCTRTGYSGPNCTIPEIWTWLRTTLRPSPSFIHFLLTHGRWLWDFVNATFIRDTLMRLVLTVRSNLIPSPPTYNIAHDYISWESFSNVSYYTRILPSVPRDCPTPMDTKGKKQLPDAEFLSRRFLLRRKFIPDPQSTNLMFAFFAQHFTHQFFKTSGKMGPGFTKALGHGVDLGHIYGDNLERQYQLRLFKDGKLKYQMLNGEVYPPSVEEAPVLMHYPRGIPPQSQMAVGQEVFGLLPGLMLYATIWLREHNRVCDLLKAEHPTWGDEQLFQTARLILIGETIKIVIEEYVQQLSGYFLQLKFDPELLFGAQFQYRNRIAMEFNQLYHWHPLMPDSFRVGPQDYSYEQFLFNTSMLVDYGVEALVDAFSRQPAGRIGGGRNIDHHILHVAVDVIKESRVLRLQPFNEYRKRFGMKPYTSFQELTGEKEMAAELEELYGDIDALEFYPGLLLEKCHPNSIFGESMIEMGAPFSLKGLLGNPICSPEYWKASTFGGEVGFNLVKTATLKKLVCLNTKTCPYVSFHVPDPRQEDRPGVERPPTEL
Kind of data set: COX Inhibitor Screening Assay (EIA) on isolated COX-1 isoenzyme. Format: biochemical, ovine. The conditions noted are these: 1 µM, incubation 10 min. On the procedure:
(§1) The incubation of the respective complexes with the isoenzymes was exactly 10 min. The values of COX inhibition were calculated as the mean of duplicates and shown as the mean ± SD of ≥2 independent experiments.

In the next data set the target is T2, COX-2 (Homo sapiens, UniProt P35354).
T2 construct: purchased Cayman Chemicals
T2 sequence (P35354 18-604): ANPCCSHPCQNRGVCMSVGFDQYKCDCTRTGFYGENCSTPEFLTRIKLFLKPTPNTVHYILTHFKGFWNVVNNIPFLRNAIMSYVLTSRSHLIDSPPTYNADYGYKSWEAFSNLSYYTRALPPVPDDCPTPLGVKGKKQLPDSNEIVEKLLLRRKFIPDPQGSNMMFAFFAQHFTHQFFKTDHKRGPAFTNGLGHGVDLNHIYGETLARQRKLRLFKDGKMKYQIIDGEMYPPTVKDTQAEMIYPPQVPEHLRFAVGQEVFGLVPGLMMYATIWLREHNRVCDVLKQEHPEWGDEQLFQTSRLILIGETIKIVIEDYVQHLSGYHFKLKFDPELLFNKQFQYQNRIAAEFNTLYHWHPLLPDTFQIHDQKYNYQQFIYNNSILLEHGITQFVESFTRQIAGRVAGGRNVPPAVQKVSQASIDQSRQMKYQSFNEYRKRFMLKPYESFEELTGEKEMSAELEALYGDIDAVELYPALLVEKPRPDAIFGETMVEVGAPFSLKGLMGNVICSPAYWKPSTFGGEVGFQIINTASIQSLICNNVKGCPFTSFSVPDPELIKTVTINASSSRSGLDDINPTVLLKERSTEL
Kind of data set: COX Inhibitor Screening Assay (EIA) on isolated COX-2 isoenzyme. It is filed as biochemical. The conditions noted are these: for Inhibition of COX-2: 1 µM, incubation 10 min. As for the experimental part:
as §1

Another data set deals with HT-29 cells. Kind of data set: Crystal violet assay, antiproliferative effects in HT-29 cells. Format: cell-based. The following applies: HT-29 (COX-1/2-positive), 72 h. As for the experimental part: (§2) In order to investigate the cytotoxic effects in MCF-7 and HT-29 cells, an already published crystal violet assay was used. The cells (HT-29: 3 × 10^3 cells per well in 100 µL of medium; MCF-7: 2 × 10^3 cells per well in 100 µL of medium) were seeded in their exponential growth phase in completed DMEM into 96-well microtiter plates in quadruples. […] Cells were then fixed with a solution of 1% (v/v) glutaric dialdehyde in PBS. In order to determine the cell biomass, the chromatin of the attached cells was stained with crystal violet, and the bound dye was extracted with EtOH (70%). The absorbance was measured at 590 nm. Mean values ± SD of ≥2 independent experiments were calculated, and the activity of the complexes was expressed as the cell mass of the vehicle-treated control, which was set to 100%.
(§3) The compounds were investigated regarding their cytotoxicity (in vitro) employing an already published crystal violet assay. It is based on the quantification of the cell biomass of living cells by staining the chromatin. In order to evaluate the possible influence of COX inhibition on cell growth, Zeise’s salt derivatives were investigated comparatively in HT-29 and MCF-7 cell lines.

The subject of a further data set is MCF-7 cells. Kind of data set: Crystal violet assay, antiproliferative effects in MCF-7 cells. Format: cell-based. The following applies: MCF-7 (COX-negative), 72 h. On the procedure: as §2, §3

On to `CC(=O)Oc1c(Cl)cccc1C(=O)OC[CH]1[CH2][Pt-]1([Cl])([Cl])[Cl].[K+]` (stereo not drawn) [3-Cl-ASA-Prop-PtCl3, Potassium trichlorido[η^2-(prop-2-en-1-yl)-2-acetoxy-3-chlorobenzoate]platinate(II)], for which the “Half-life (τ½)” value in data set [1] came out at 31.4 ± 1.7 min. Besides, the “Inhibition of COX-1” value on COX-1 turned out to be 51.7%. For the same compound, the “Inhibition of COX-2” value on COX-2 is 58.8%. Besides, the half-inhibitory concentration (IC50) in the data set on HT-29 cells was determined as 89.7 ± 25.7 µM; in the data set on MCF-7 cells, 56.3 ± 5.8 µM.
`CC(=O)Oc1c(F)cccc1C(=O)OC[CH]1[CH2][Pt-]1([Cl])([Cl])[Cl].[K+]` (stereo not drawn) [3-F-ASA-Prop-PtCl3, Potassium trichlorido[η^2-(prop-2-en-1-yl)-2-acetoxy-3-fluorobenzoate]platinate(II)]: the “Half-life (τ½)” value in data set [1] is on record as 30.5 ± 1.4 min. In addition, the “Inhibition of COX-2” value at COX-2 amounted to 20.7%. The concentration for half-maximal inhibition (IC50) in the data set with HT-29 cells was found to be 86.9 ± 3.9 µM; with MCF-7 cells, 85.2 ± 21.8 µM.
With `CC(=O)Oc1cc(Cl)ccc1C(=O)OCC[CH]1[CH2][Pt-]1([Cl])([Cl])[Cl].[K+]` (stereo not drawn) [4-Cl-ASA-But-PtCl3, Potassium trichlorido[η^2-(but-3-en-1-yl)-2-acetoxy-4-chlorobenzoate]platinate(II)], the “Half-life (τ½)” value in data set [1] is 2370 ± 144 min. Further, on COX-1, the “Inhibition of COX-1” value is 47.9%. Further, the “Inhibition of COX-2” value on COX-2 stood at 40.0%. Besides, the concentration for half-maximal inhibition (IC50) in the data set on HT-29 cells was found to be 35.2 ± 9.3 µM; in the data set with MCF-7 cells, 31.7 ± 8.7 µM.
Regarding `CC(=O)Oc1cc(Cl)ccc1C(=O)OC[CH]1[CH2][Pt-]1([Cl])([Cl])[Cl].[K+]` (stereo not drawn) [4-Cl-ASA-Prop-PtCl3, Potassium trichlorido[η^2-(prop-2-en-1-yl)-2-acetoxy-4-chlorobenzoate]platinate(II)], the “Half-life (τ½)” value in data set [1] is reported as 32.7 ± 1.8 min. Besides, the COX-2 selectivity on COX-2 (from inhibition at 1 µM, COX-2 over COX-1) amounted to 1.5 fold. Also, the results for the IC50 with HT-29 cells and with MCF-7 cells were 89.8 ± 23.9 µM and 70.7 ± 3.6 µM, respectively.
On to `CC(=O)Oc1cc(F)ccc1C(=O)OC[CH]1[CH2][Pt-]1([Cl])([Cl])[Cl].[K+]` (stereo not drawn) [4-F-ASA-Prop-PtCl3, Potassium trichlorido[η^2-(prop-2-en-1-yl)-2-acetoxy-4-fluorobenzoate]platinate(II)], for which the “Half-life (τ½)” value in data set [1] amounted to 32.1 ± 1.1 min. The “Inhibition of COX-2” value at COX-2 was determined as 17.5%. Further, the concentration for half-maximal inhibition (IC50) in the data set with HT-29 cells turned out to be 107 ± 3.1 µM; with MCF-7 cells, 150 ± 33.6 µM.
For `CC(=O)Oc1ccc(C)cc1C(=O)OCC[CH]1[CH2][Pt-]1([Cl])([Cl])[Cl].[K+]` (stereo not drawn) [5-CH3-ASA-But-PtCl3, Potassium trichlorido[η^2-(but-3-en-1-yl)-2-acetoxy-5-methylbenzoate]platinate(II)], the “Half-life (τ½)” value in data set [1] stood at 3140 ± 258 min. The “Inhibition of COX-1” value on COX-1 worked out at 60.4%. Further, the “Inhibition of COX-2” value at COX-2 amounted to 45.0%. In addition, the concentration for half-maximal inhibition (IC50) stood at 16.2 ± 2.5 µM in the data set with HT-29 cells and 32.5 ± 4.4 µM with MCF-7 cells.
Take `CC(=O)Oc1cccc(C)c1C(=O)OC[CH]1[CH2][Pt-]1([Cl])([Cl])[Cl].[K+]` (stereo not drawn) [6-CH3-ASA-Prop-PtCl3, Potassium trichlorido[η^2-(prop-2-en-1-yl)-2-acetoxy-6-methylbenzoate]platinate(II)]: the “Half-life (τ½)” value in data set [1] was 44.8 ± 1.1 min. Also, the values for the IC50 in the data set on HT-29 cells and in the data set with MCF-7 cells were 27.4 ± 1.4 µM and 76.2 ± 1.4 µM, respectively.
The matching figures for `CC(=O)Oc1cccc(Cl)c1C(=O)OCC[CH]1[CH2][Pt-]1([Cl])([Cl])[Cl].[K+]` (stereo not drawn) [6-Cl-ASA-But-PtCl3, Potassium trichlorido[η^2-(but-3-en-1-yl)-2-acetoxy-6-chlorobenzoate]platinate(II)]: 3110 ± 462 min, 57.5 ± 19.2 µM and 42.3 ± 8.3 µM.
The like results for `CC(=O)Oc1cccc(Cl)c1C(=O)OC[CH]1[CH2][Pt-]1([Cl])([Cl])[Cl].[K+]` (stereo not drawn) [6-Cl-ASA-Prop-PtCl3, Potassium trichlorido[η^2-(prop-2-en-1-yl)-2-acetoxy-6-chlorobenzoate]platinate(II)] were, in that order, 39.5 ± 1.9 min, 38.4 ± 3.4 µM and 85.9 ± 9.2 µM.
As to `CC(=O)Oc1cccc(F)c1C(=O)OCC[CH]1[CH2][Pt-]1([Cl])([Cl])[Cl].[K+]` (stereo not drawn) [6-F-ASA-But-PtCl3, Potassium trichlorido[η^2-(but-3-en-1-yl)-2-acetoxy-6-fluorobenzoate]platinate(II)], in data set [1], the “Half-life (τ½)” value is 2080 ± 90 min. The IC50 in the data set with HT-29 cells came to 99.7 ± 0.4 µM; with MCF-7 cells it was 92.6 ± 23.8 µM.
The like results for `CC(=O)Oc1cccc(F)c1C(=O)OC[CH]1[CH2][Pt-]1([Cl])([Cl])[Cl].[K+]` (stereo not drawn) [6-F-ASA-Prop-PtCl3, Potassium trichlorido[η^2-(prop-2-en-1-yl)-2-acetoxy-6-fluorobenzoate]platinate(II)] were, in that order, 29.1 ± 0.3 min, 114 ± 7.1 µM and at least 200 µM.
